# Results: PubChem BioAssay (NCI)
#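 Cultured in 96-well plates, cells were exposed to test compound for 48 hours across five concentrations. GI50 is the concentration that inhibits growth by half. TGI is the concentration that stops growth completely.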
# What was measured:
# Test in all cases: NCI anticancer screen, dose series, 48 h
# [1] = system: SF-268 CNS
# [2] = system: SK-MEL-28 melanoma
# [3] = system: SN12C renal
# [4] = system: SNB-75 CNS
# [5] = system: HS 578T breast
# [6] = system: HOP-92 NSCLC
# [7] = system: HOP-62 NSCLC
# [8] = system: MDA-MB-435
# [9] = system: SK-MEL-5 melanoma
# [10] = system: OVCAR-4 ovarian
SMILES,GI50 [1],TGI [1],GI50 [2],TGI [2],GI50 [3],TGI [3],GI50 [4],TGI [4],GI50 [5],TGI [5],GI50 [6],TGI [6],GI50 [7],TGI [7],GI50 [8],TGI [8],GI50 [9],TGI [9],TGI [10],GI50 [10]
CC(C)C[C@H](NC(=O)/C=C/Cn1ccc2ccccc2c1=O)B(O)O,4.98 µM,51.5 µM,3.85 µM,36 µM,6.32 µM,> 100 µM,3.2 µM,16.3 µM,5.03 µM,> 100 µM,6.49 µM,30.4 µM,4.9 µM,25.9 µM,1.48 µM,2.96 µM,2.36 µM,6.16 µM,–,–
CSC(C1c2ccccc2N(c2ccc(C)cc2)c2[nH]c(=O)n(C)c(=O)c21)S(=O)(=O)c1ccc(C)cc1 (centres undefined),–,> 100 µM,–,> 100 µM,–,> 100 µM,–,> 100 µM,–,–,–,> 100 µM,–,> 100 µM,–,–,–,> 100 µM,> 100 µM,–
O=C1CSC(c2ccc(Cl)cc2Cl)N1c1ccc(F)cc1 (centres undefined),16.9 µM,32.2 µM,–,–,16.7 µM,30.6 µM,–,–,16.8 µM,39.9 µM,17.6 µM,32.8 µM,18 µM,32.3 µM,20.8 µM,43 µM,24.6 µM,39.8 µM,31.9 µM,16.8 µM
Cc1ccc(S(=O)(=O)C(C#N)c2nc3ccccc3nc2-n2ccnc2)cc1 (centres undefined),–,> 100 µM,–,> 100 µM,–,> 100 µM,–,> 100 µM,–,–,–,> 100 µM,–,> 100 µM,–,–,–,> 100 µM,> 100 µM,–
O=C1CCC(O)=C1N=Nc1ccccc1,–,> 100 µM,–,> 100 µM,–,> 100 µM,–,> 100 µM,–,–,–,> 100 µM,–,> 100 µM,–,–,–,> 100 µM,> 100 µM,–
O=C(O)[C@H](NS(=O)(=O)c1ccc([N+](=O)[O-])cc1)c1ccccc1,–,> 100 µM,–,> 100 µM,–,> 100 µM,–,> 100 µM,–,–,–,> 100 µM,–,> 100 µM,–,–,–,> 100 µM,> 100 µM,–
CN(CCC#N)c1ccc(/C=C(\C#N)c2ccc(Br)cc2)cc1,> 100 µM,> 100 µM,> 100 µM,> 100 µM,–,–,–,–,> 100 µM,> 100 µM,2.52 µM,> 100 µM,–,–,1.97 µM,> 100 µM,–,–,> 100 µM,> 100 µM
COc1ccc(CCN2COc3c([C@@H](C)CCC=C(C)C)ccc(C)c3C2)cc1OC,1.45 µM,4.34 µM,2.21 µM,4.94 µM,3.27 µM,13.5 µM,12.5 µM,35.4 µM,3.94 µM,17.3 µM,–,–,1.86 µM,3.62 µM,3.11 µM,10.9 µM,1.64 µM,3.04 µM,16 µM,2.99 µM
COc1ccc(/C=C/C(=O)C(CC2CCC2)C(=O)/C=C/c2ccc(OC)c(OC)c2)cc1OC,2.58 µM,9.51 µM,2.16 µM,5.39 µM,1.93 µM,4.55 µM,1.32 µM,2.74 µM,3.19 µM,> 100 µM,2.64 µM,7.9 µM,–,–,1.49 µM,3.15 µM,1.77 µM,3.25 µM,> 100 µM,2.34 µM
